Experimental findings from patent EP0428486B1, “Polymyxin conjugates” (SANDOZ LTD., priority 1989, dated 1991) are described below.

In one series the test system is non-sensitized mice. The series is described as follows: PMB (native and conjugated forms) induced lethality, i.p. The class given is in vivo, Male CB57BL/c mice. Conditions: intraperitoneal injection, lethality monitored for 7 days. The method, then: (§1) As used herein the following definitions apply: • LD₀ is the highest non-toxic dose of PMB or its conjugate; • LD₁₀₀ is the dose of PMB or its conjugated form which results in 90-100% lethality when injected into a normal test animal; • PD₁₀₀ is the dose of polymyxin B or its conjugated form which, when injected into a hypersensitized test animal, results in at least 95 % survival; • Therapeutic Index (TI) is calculated by dividing LD₁₀₀ by PD₁₀₀.
PMB (native and conjugated forms) are evaluated for their inherent toxicity in non-sensitized mice. Male CB57BL/c mice (18-22 g, Jackson Labs) are used throughout this study. Animals are given either native PMB or conjugated PMB by intraperitoneal injection (0.5 ml/animal) and lethality is monitored for 7 days. The LD₁₀₀ is determined by varying the dose of PMB (native and conjugated forms) that result in 100 % lethality. From 10 to 20 animals are used for each dose.

The test system of the next series is endotoxin (0111B₄). Description: PMB anti-endotoxin evaluation (endotoxin-induced lethality in galactosamine-hypersensitized mice), i.p. The class given is in vivo, Male CB57BL/c mice. The method, then: as §1
Male CB57BL/c mice (18-22 g, Jackson Labs) are used throughout this study. Animals are given endotoxin (0111B₄ from List Biologicals, Palo Alto, CA, USA) and galactosamine to hypersensitize, as described in Galanos et al., Proc. Natl. Acad. Sci. USA 76 (1979) 5939. The endotoxin and galactosamine (320 mg/kg) are injected intraperitoneally in 0.5 ml pyrogen-free isotonic saline per animal between 13:00 and 15:00 to avoid diurnal variation. From a dose-response study, it is determined that 0.01 mg/kg endotoxin produces 85-95 % lethality. Animals are observed each day for 6 days after injection.
PMB (native and conjugated forms) are evaluated for their ability to neutralize endotoxin by either pre-mixing with endotoxin for 60 minutes before i.p. injection or by coadministration of the substances as a single i.p. injection. […]

Series [1] is described as follows: Toxicity (lethality) after i.v. injection, Example 4. Type of series: in vivo. The procedure: The ultra-pure PMB-conjugate has an LD₀ of > 100 mg/kg and it has not been possible to establish an LD₁₀₀ due to its inherent non-toxicity. Comparisons in the table below are made between the highest non-toxic dose of PMB (native or conjugated): […]
Another series deals with E.coli 0111B4 endotoxin. The series is described as follows: Endotoxin-induced lethality test, i.v. treatment, Example 4. Conditions: i.v. injection 1-3 minutes before an LD90 i.p. injection of E.coli 0111B4 endotoxin (0.5 µg/kg). The class given is in vivo.

For the substance polymyxin B [Native PMB], the LD₁₀₀ in the series on non-sensitized mice came out at 25 mg/kg. The PD₁₀₀ with endotoxin (0111B₄) (PMB or conjugate allowed to react with the endotoxin for 60 min before i.p. injection) was found to be 2 mg/kg; in the series with endotoxin (0111B₄) (i.p., hypersensitized mice (galactosamine 320 mg/kg, endotoxin 0.01 mg/kg), pre-mixing or coadministration not stated for these rows), 2 mg/kg; in the series on E.coli 0111B4 endotoxin, 0.1 mg/kg. In series [1] (i.v.), the LD₁₀₀ i.v. stood at 9.5 mg/kg. Further, the LD₀ in series [1] (i.v. injection, lethality monitored over 7 days, highest non-toxic dose) was 5 mg/kg.
